Reference: patent US7511123B2, “Immuno-interactive fragments of the alpha-C subunit of inhibin” (Prince Henry's Institute of Medical Research, priority 1999, dated 2009)

B1: rh-inhibin A: recombinant human inhibin A standard (protein)
chain 1: STPLMSWPWSPSALRLLQRPPEEPAAHANCHRVALNISFQELGWERWIVYPPSFIFHYCHGGCGLHIPPNLSLPVPGAPPTPAQPYSLLPGAQPCCAALPGTMRPLHVRTTSDGGYSFKYETVPNLLTQHCACI
chain 2: GLECDGKVNICCKKQFFVSFKDIGWNDWIIAPSGYHANYCEGECPSHIAGTSGSSLSFHSTVINHYRMRGHSPFANLKSCCVPTKLRPMSMLYYDDGQNIIKKDIQNMIVEECGCS

Assays:
As #41 [1] = assay: Competitive 2-site assay (Assay 3), approach (b); type: binding, sheep; design: key to #41 2-site competitive assay Assay 3: +++++ major contribution; + minor contribution
Description: (§1) This assay was developed to establish the relative importance of the individual peptides and peptide pools (identified as epitopes in Assays 1 and 2) in the sandwich antibody format used in the IFMA with As #128 as capture antibody and As #41 as detection antibody. Two approaches (a and b) were considered, Approach (a) explores the cross-reaction of peptides with inhibin for the immobilized As #128 while Approach (b) assesses their cross-reaction with inhibin for As #41.
Approach (b). In this approach, the competition of peptides with the As #41 antiserum using the sandwich antibody format was assessed. Hr-Inhibin was initially incubated with the As #128 coated wells for 1 hour at room temperature. The biotinylated peptide pools and/or individual peptides were incubated together with iodinated As #41 for 1 hour and then added to the inhibin bound As #128 coated plates and incubated for 2 hours at room temperature. Plates were then washed to remove any unbound material and the resulting activity was measured in the gamma counter.

As #1989 = assay: RIA (Assay 2): competition with iodinated inhibin for As #1989; type: binding, rabbit; details: for As#1989 ED50: 50% fall in binding of iodinated inhibin; for ED50 values As#1989: non-biotinylated peptides, hr-inhibin A as standard
Description: (§2) This assay was used to determine which peptides compete with iodinated 30 kDa inhibin for As #41, #128 and #1989 (used in the original inhibin RIA, Lapphorn et al., 1989, supra) in a RIA format. This assay identifies those peptides that bind to inhibin-binding antibodies in the antiserum and provides a stricter affinity and specificity assessment in identifying the appropriate epitopes than that found with Assay 1. The competition between peptide and hr-inhibin (used as the standard) was assessed from their ED50 values. The RIA consisted of the competition of iodinated inhibin and either hr-inhibin reference preparation, individual peptides or pools from the 4 peptide regions, with As #41, #128 and in some instances, As #1989. The peptides/inhibin/iodinated inhibin and antisera (at a prescribed dilution) were incubated overnight at 4° C. using standard methodologies. The antibody-bound iodinated inhibin was immunoprecipitated with the addition of an anti-sheep IgG serum raised in goats and the radioactivity was measured in a gamma counter. The concentration of peptide that gives a 50% fall in binding of iodinated inhibin (ED50) was determined and this value was used to give a measure of the affinity of the peptide for the antiserum. This methodology consisted of determining the ED50 of the peptide in the RIA using iodinated human recombinant inhibin as tracer with either As #41, As #128 or As #1989 and graded doses of either hr-inhibin or peptide as described in Example 2.

As #128 [2] = assay: RIA (Assay 2): competition with iodinated inhibin for As #128; type: binding, sheep; details: for As#128 ED50: biotinylated peptides, 50% fall in binding of iodinated inhibin; for ED50 values As#128: non-biotinylated peptides, hr-inhibin A as standard
Description: as §2

As #41 [3] = assay: RIA (Assay 2): competition with iodinated inhibin for As #41; type: binding, sheep; details: for As#41 ED50: biotinylated peptides, 50% fall in binding of iodinated inhibin; for ED50 values As#41: non-biotinylated peptides, hr-inhibin A as standard
Description: as §2

As #41 [4] = assay: Two-site assay design variation: biotinylated #41 pre-incubated with peptide; type: binding, sheep; details: non-biotinylated peptides 0.1-1.0 micromolar
Method: (iv) In a variation to the above design, biotinylated #41 was pre-incubated with peptide (0.1-1.0 micromolar) for 1.5 hours at room temperature and then added to the As #128 coated plate pre-bound with inhibin as for (i)-(iii). […] Combination of peptide #5 and #30 led to 74% decrease.

As#128 and/or As#41 = assay: Inhibin IFMA with pre-immunoabsorption of antisera by peptides; type: binding, sheep
Description: This IFMA is used in the measurement of inhibin in serum from women with ovarian cancer and is presented at this juncture as a reference to the following procedures. The IFMA is a sandwich antibody assay in 96-well microtiter plates. The capture antiserum is As #128 and the labeled antiserum As #41, both raised in sheep to the alpha subunit of human inhibin. Sheep As #128 was also boosted with human recombinant 30-kDa inhibin. The microtiter plates were coated with a caprylic acid IgG cut of antiserum #128. Inhibin standard and serum samples were added and incubated for 2 hours at room temperature. A biotinylated antiserum (As #41) which has been immunopurified by absorption to a column of bovine (alpha)C subunit fusion protein (as previously described, Robertson et al., 1997, supra) followed by elution with a glycine (pH 2.5) buffer, was added to bind to the antibody-bound inhibin (2-hour incubation at room temperature). Fluorescently (Eu) labeled-streptavidin that has a high affinity for biotin is added (30 minutes at room temperature) and the Eu-bound streptavidin is counted in a time-resolved fluorimeter. The Eu measured is proportional to the inhibin bound by the two antisera.
As another approach, the competition of combinations of peptides at a maximum saturating dose was assessed in the IFMA (FIGS. 7-9). […] This suppression in binding provides a measure of the contribution of that particular epitope to the assay.

As #128 [5] = assay: Two-site assay design: peptides pre-incubated with As #128 coated plate; type: binding, sheep; details: non-biotinylated peptides 0.1-1 micromolar
Method: On the other hand, the IFMA design is based on the total amount of inhibin bound which is a combination of both antibody affinity and concentration. In order to establish to what extent epitopes to these peptides contribute to the overall IFMA, the following two-site assay designs were used.
(i) Peptides #5, #20 and #30 (0, 0.1-1 micromolar) were incubated with the As #128 coated plate for 1.5 hours at RT and the wells washed. The highest dose of peptide used was saturating.
(ii) Hr-Inhibin was then added as a saturating or near saturating dose to the As #128 coated plate and incubated for 2 hours at room temperature and the plate washed.
(iii) Biotinylated As #41 was added to the above wells and incubated for 2 hours at RT. Plates were then washed and counted.

As #128 [6] = assay: Competitive 2-site assay (Assay 3), approach (a); type: binding, sheep; design: key: +++++ major contribution; + minor contribution; details: relative contribution
Description: as §1
Approach (a). The biotinylated peptide pools and/or individual peptides at various concentrations, in combination with a fixed concentration of hr-inhibin, were incubated for 2 hours with As #128-coated plates. The plates were then washed to remove any unbound material. Iodinated As #41 was then added to bind to the bound hr-inhibin, the plates washed and the bound radioactivity was measured in a gamma counter. The counts measured were proportional to the amount of hr-inhibin bound to both antisera. The possibility that a peptide contained two epitopes capable of linking As #128 and #41 was assessed in the absence of added hr-inhibin.

As #128 [7] = assay: Solid phase assay (Assay 1): biotinylated peptides binding to As #128; design: species or system sheep; key: +++++ major contribution; + minor contribution; details: relative contribution
Method: This assay is a broad screen of the binding of the 31 biotinylated peptides to As #41 and #128 as recommended by Chiron Mimotopes.
The biotinylated peptides were initially bound to streptavidin-coated 96-well plates (2 hours at room temperature), antiserum #41 or #128 was then added (2 hours room temperature) to bind to the peptides. Detection of antiserum binding was assessed by a further incubation with an anti-ovine IgG serum labeled with the enzyme, horseradish peroxidase. The enzyme activity was assessed by conversion of a colorless substrate to a colored product that is detected in a spectrophotometer. The enzyme activity measured was proportional to the extent of the binding of the peptides.

PO#14 + PO#23-R1 = assay: Cross-reaction of inhibin-related proteins in 14 + 23-R1 ELISA; type: binding, mouse; details: relative to rh inhibin A standard (=100); average of two experiments
Method: (§3) An ELISA system using 96-well microtiter plates was developed consisting of one alpha subunit antibody as coating antibody and an alkaline phosphatase-linked second antibody as label. The alkaline phosphatase activity was amplified using an ELISA amplification kit (Gibco, Life Technologies, Rockville Md., USA). The plate was initially coated with monoclonal antibody at 2 micrograms/well in 0.1 M bicarbonate buffer pH 9.4 overnight at room temperature and blocked with 50 mM TRIS/HCl, 1% bovine serum albumin (BSA) pH 7.4.
(§4) The ELISAs in application to non-serum samples consisted of 100 microliters sample or recombinant human (rh) inhibin A standard (provided by National Institute of Biological Standards and Control, Potters Bar, Herts, UK) in assay buffer (100 mM TRIS/HCl, 154 mM NaCl, 5% Triton-X-100, 10% BSA pH, 7.5) and 100 microliters assay buffer. In the assay of serum, the inhibin A standard (100 microliters) was diluted in assay buffer. Inhibin-free serum (100 microliters) was also added to make a total well volume of 200 microliters. The inhibin-free serum was obtained by incubating serum with an immobilized inhibin alpha subunit antibody. […] Serum samples were initially boiled in the presence of SDS (2% final concentration) and diluted 1:1 with assay buffer before adding 100 microliters to the wells. The inhibin-free serum and the SDS boiling steps were included to offset any potential matrix effects of serum known to affect other inhibin ELISAs although the need for these specific steps had not been assessed.
(§5) The plate was incubated with shaking overnight at room temperature. The wells were washed, and alkaline phosphatase (AP)-linked antibody added, incubated with shaking for 3 hours at room temperature and washed again. The substrate (NADPH, Gibco) was added and the plate incubated for 2 hours with shaking at room temperature. The amplifying enzymes (alcohol dehydrogenase and diaphorase, Gibco) were added and incubated for 5-15 min until appropriate color had developed. The plate was read at 490/630 nm on an ELISA plate reader.
(§6) The specificity of the ELISAs was assessed by determining the cross-reaction of inhibin-related proteins in the various ELISAs.
As a result of an initial characterization of these ELISAs (see below), a combination of PO#14+PO#23 as coating antibodies and AP linked-R1 antibody as tracer was also assessed and its characteristics are also presented in Table 11 and 12 and FIG. 10c.

PO#23-R1 = assay: Cross-reaction of inhibin-related proteins in 23-R1 ELISA; type: binding, mouse; details: relative to rh inhibin A standard (=100); average of two experiments
Method: as §3, §4, §5, §6

PO#14-R1 = assay: Cross-reaction of inhibin-related proteins in 14-R1 ELISA; type: binding, mouse; details: relative to rh inhibin A standard (=100); average of two experiments
Method: as §3, §4, §5, §6

Row | Molecule | #41 2-site competitive assay Assay 3 (As #41 [1]; relative contribution) | As#1989 ED50 (As #1989; biotinylated peptides) [nM] | As#128 ED50 (As #128 [2]) [nM] | As#41 ED50 (As #41 [3]) [nM] | inhibition with biotinylated #41 pre-incubated with peptide (As #41 [4]) | blocking of As #41 binding to the inhibin-As#128 complex (As #41 [1]; biotinylated peptide pools or peptides incubated with iodinated As #41) [%] | % suppression at 2ng inhibin (As#128 and/or As#41; As#41 label pre-absorbed with peptide, As#128 coating antibody: buffer) [%] | suppression in binding with As #128 (As #128 [5]) | ED50 with As #1989 (As #1989; biotinylated peptides) [nM] | affinity to rabbit antiserum #1989 (As #1989; in words) | ED50 values As#1989 (As #1989) [nM] | ED50 values As#128 (As #128 [2]) [nM] | ED50 values As#41 (As #41 [3]) [nM] | % suppression at 2ng inhibin (As#128 and/or As#41; As#128 coating antibody pre-absorbed with peptide(s), As#41 label: buffer) [%] | #128 2-site competitive assay Assay 3 (As #128 [6]) | #128 Antibody screen Assay 1 (As #128 [7]) | 14 + 23-R1 ELISA specificity (PO#14 + PO#23-R1) | 23-R1 ELSIA specificity (PO#23-R1) | 14-R1 ELISA specificity (PO#14-R1)
1 | SGSG ETVPNLLTQHCACI [Peptide 33] | + | >2500 | 2500 | 4000 | – | – | – | – | – | – | – | – | – | – | – | – | – | – | –
2 | SGSG RTTSDGGYSFKYET [Peptide 30] | – | <10 | 600 | 2500 | 25-30% | 50 | 28 | no suppression at all | < 10 | high affinity | 2500 | >5000 | >5000 | – | – | – | – | – | –
3 | SGSG PNLSLPVPGAPPTP [Peptide 20] | – | >2500 | 20 | 3600 | no inhibition | – | – | 23% | – | – | >5000 | 150 | >5000 | 13 | + | + | – | – | –
4 | B1 | – | – | – | – | – | – | – | – | – | – | – | – | – | – | – | – | 100 | 100 | 100
